In US20240208992A1, “MACROCYCLES AS CFTR MODULATORS” (Idorsia Pharmaceuticals Ltd, priority 2021, published 2024):

Molecular target: human F508del-CFTR (Homo sapiens, UniProt P13569, DEL508-508)
Assay: F508del-CFTR cell surface expression (corrector activity), DiscoveRx ß-galactosidase complementation chemiluminescence assay in recombinant U2OS cell line;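 note: U2OS cells co-expressing ProLink-tagged F508del-CFTR and a membrane-anchored enzyme acceptor, where more surface CFTR restores β-galactosidase activity measured by chemiluminescence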
Details: U2OS cells, 16h compound incubation; for EC50: EC50, F508del-CFTR cell surface expression, geomean of several measurements; for Emax: U2OS, in relation to the Emax of the corrector lumacaftor (=100%), arithmetic mean

Sequence of human F508del-CFTR (P13569 with tags, fused parts or gaps DEL508-508): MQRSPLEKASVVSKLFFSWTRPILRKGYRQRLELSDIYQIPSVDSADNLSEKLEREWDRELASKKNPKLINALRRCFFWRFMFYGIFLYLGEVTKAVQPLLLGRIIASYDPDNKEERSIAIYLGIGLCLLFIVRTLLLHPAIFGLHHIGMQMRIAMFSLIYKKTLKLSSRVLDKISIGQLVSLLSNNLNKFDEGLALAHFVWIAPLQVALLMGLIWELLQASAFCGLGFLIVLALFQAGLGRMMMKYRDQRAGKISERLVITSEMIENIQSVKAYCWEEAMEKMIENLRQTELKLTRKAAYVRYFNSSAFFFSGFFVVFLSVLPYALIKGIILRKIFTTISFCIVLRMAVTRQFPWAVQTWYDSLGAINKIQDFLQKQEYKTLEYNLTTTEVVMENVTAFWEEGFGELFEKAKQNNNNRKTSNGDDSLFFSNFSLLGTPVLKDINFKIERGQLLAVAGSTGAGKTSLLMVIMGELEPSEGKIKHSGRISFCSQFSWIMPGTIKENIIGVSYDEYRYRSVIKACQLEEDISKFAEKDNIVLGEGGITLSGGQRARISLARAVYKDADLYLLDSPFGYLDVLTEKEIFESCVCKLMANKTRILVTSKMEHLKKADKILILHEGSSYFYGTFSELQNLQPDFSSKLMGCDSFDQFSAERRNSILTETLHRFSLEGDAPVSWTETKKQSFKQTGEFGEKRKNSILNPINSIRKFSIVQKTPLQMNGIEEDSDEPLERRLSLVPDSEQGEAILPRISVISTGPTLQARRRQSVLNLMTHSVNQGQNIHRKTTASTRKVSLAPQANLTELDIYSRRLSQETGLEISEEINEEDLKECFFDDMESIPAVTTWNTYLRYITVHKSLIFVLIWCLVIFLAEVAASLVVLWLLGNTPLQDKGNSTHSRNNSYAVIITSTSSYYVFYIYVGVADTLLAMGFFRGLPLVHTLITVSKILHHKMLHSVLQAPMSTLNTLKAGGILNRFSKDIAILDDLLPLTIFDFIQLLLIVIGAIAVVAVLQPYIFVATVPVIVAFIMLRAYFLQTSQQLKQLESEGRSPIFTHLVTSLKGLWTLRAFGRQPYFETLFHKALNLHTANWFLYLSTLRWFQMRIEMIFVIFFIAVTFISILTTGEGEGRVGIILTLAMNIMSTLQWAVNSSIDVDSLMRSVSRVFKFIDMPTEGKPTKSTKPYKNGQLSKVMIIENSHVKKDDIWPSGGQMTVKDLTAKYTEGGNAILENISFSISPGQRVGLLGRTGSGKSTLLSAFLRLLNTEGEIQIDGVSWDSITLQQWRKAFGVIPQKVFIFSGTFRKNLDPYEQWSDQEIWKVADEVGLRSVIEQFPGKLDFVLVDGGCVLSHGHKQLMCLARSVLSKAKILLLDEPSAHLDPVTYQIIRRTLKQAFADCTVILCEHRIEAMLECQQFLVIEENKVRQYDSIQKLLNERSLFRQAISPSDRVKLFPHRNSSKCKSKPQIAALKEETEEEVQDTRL

| SMILES | EC50 [nM] | Emax [%] |
| --- | --- | --- |
| Cc1cc2c3c(ccc2cn1)OC[C@@H](Cc1ccccc1)NC(=O)[C@H]1CCCCN1C(=O)[C@H](CC(C)C)N(C)C(=O)C[C@@H](C(=O)NCCn1nnc(C2CC2)n1)NC3=O [Example 823, (9S,13S,19aR,22R)-22-benzyl-N-(2-(5-cyclopropyl-2H-tetrazol-2-yl)ethyl)-13-isobutyl-5,12-dimethyl-7,11,14,20-tetraoxo-7,8,9,10,11,12,13,14,17,18,19,19a,20,21,22,23-hexadecahydro-16H-pyrido[2′,1′:6,7][1]oxa[4,7,10,14]tetraazacycloheptadecino[16,17-f]isoquinoline-9-carboxamide] | 241 | 366 |
| Cc1cc2c3c(ccc2cn1)OC[C@@H](Cc1ccccc1)NC(=O)[C@@H](C)N(C)C(=O)[C@H](CC(C)C)N(C)C(=O)C[C@@H](C(=O)NCCc1cc(C)no1)NC3=O [Example 824, (3S,7S,10R,13R)-13-benzyl-7-isobutyl-6,9,10,20-tetramethyl-N-(2-(3-methylisoxazol-5-yl)ethyl)-1,5,8,11-tetraoxo-1,2,3,4,5,6,7,8,9,10,11,12,13,14-tetradecahydro-[1]oxa[4,7,10,14]tetraazacycloheptadecino[16,17-f]isoquinoline-3-carboxamide] | 674 | 354 |
| COc1cc(CCNC(=O)[C@@H]2CC(=O)N(C)[C@@H](CC(C)C)C(=O)N(C)[C@H](C)C(=O)N[C@H](Cc3ccccc3)COc3ccc4cnc(C)cc4c3C(=O)N2)on1 [Example 825, (3S,7S,10R,13R)-13-benzyl-7-isobutyl-N-(2-(3-methoxyisoxazol-5-yl)ethyl)-6,9,10,20-tetramethyl-1,5,8,11-tetraoxo-1,2,3,4,5,6,7,8,9,10,11,12,13,14-tetradecahydro-[1]oxa[4,7,10,14]tetraazacycloheptadecino[16,17-f]isoquinoline-3-carboxamide] | 353 | 388 |
| Cc1cc2c3c(ccc2cn1)OC[C@@H](Cc1ccccc1)NC(=O)[C@@H](C)N(C)C(=O)[C@H](CC(C)C)N(C)C(=O)C[C@@H](C(=O)NCCc1nc(C2CC2)no1)NC3=O [Example 826, (3S,7S,10R,13R)-13-benzyl-N-(2-(3-cyclopropyl-1,2,4-oxadiazol-5-yl)ethyl)-7-isobutyl-6,9,10,20-tetramethyl-1,5,8,11-tetraoxo-1,2,3,4,5,6,7,8,9,10,11,12,13,14-tetradecahydro-[1]oxa[4,7,10,14]tetraazacycloheptadecino[16,17-f]isoquinoline-3-carboxamide] | 283 | 340 |
| COc1cc(CCNC(=O)[C@@H]2CC(=O)N(C)[C@@H](CC(C)C)C(=O)N(C)[C@H](CN3CCC(F)(F)C3)C(=O)N[C@H](Cc3ccccc3)COc3cnc4ccc(F)cc4c3C(=O)N2)on1 [Example 827, (3S,7S,10R,13R)-13-benzyl-10-((3,3-difluoropyrrolidin-1-yl)methyl)-20-fluoro-7-isobutyl-N-(2-(3-methoxyisoxazol-5-yl)ethyl)-6,9-dimethyl-1,5,8,11-tetraoxo-1,2,3,4,5,6,7,8,9,10,11,12,13,14-tetradecahydro-[1]oxa[4,7,10,14]tetraazacycloheptadecino[17,16-c]quinoline-3-carboxamide] | 54 | 379 |
| COc1nc(C)cc2c1C(=O)N[C@H](C(=O)NC[C@@H](O)c1ccccc1)CC(=O)N(C)[C@@H](CC(C)C)C(=O)N(C)[C@H](CC(C)C)C(=O)N[C@H](Cc1ccccc1)CO2 [Example 828, (3R,6R,9S,13S)-3-benzyl-N-((S)-2-hydroxy-2-phenylethyl)-6,9-diisobutyl-16-methoxy-7,10,18-trimethyl-5,8,11,15-tetraoxo-2,3,4,5,6,7,8,9,10,11,12,13,14,15-tetradecahydropyrido[3,4-p][1]oxa[4,7,10,14]tetraazacycloheptadecine-13-carboxamide] | 299 | 317 |
| CC(C)C[C@H]1C(=O)N2CCCC[C@@H]2C(=O)N[C@H](Cc2ccccc2)COc2ccc3ncc(F)cc3c2C(=O)N[C@H](C(=O)NCCn2nnc(C3CC3)n2)CC(=O)N1C [Example 829, (9S,13S,19aR,22R)-22-benzyl-N-(2-(5-cyclopropyl-2H-tetrazol-2-yl)ethyl)-5-fluoro-13-isobutyl-12-methyl-7,11,14,20-tetraoxo-7,8,9,10,11,12,13,14,17,18,19,19a,20,21,22,23-hexadecahydro-16H-pyrido[2′,1′:6,7][1]oxa[4,7,10,14]tetraazacycloheptadecino[16,17-f]quinoline-9-carboxamide] | 142 | 320 |
| COCCn1cc(CCNC(=O)[C@@H]2CC(=O)N(C)[C@@H](CC(C)C)C(=O)N(C)C3(CC3)C(=O)N[C@H](Cc3ccccc3)COc3cnc4ccc(F)cc4c3C(=O)N2)cn1 [Example 830, (3′S,7′S,13′R)-13′-benzyl-20′-fluoro-7′-isobutyl-N-(2-(1-(2-methoxyethyl)-1H-pyrazol-4-yl)ethyl)-6′,9′-dimethyl-1′,5′,8′,11′-tetraoxo-2′,3′,4′,5′,6′,7′,8′,9′,11′,12′,13′,14′-dodecahydro-1′H-spiro[cyclopropane-1,10′-[1]oxa[4,7,10,14]tetraazacycloheptadecino[17,16-c]quinoline]-3′-carboxamide] | 1040 | 310 |
| COc1nccc2c1C(=O)N[C@H](C(=O)NCC(F)(F)c1nc(C3CC3)no1)CC(=O)N(C)[C@@H](CC(C)C)C(=O)N1CCCC[C@@H]1C(=O)N[C@H](Cc1ccccc1)CO2 [Example 831, (7S,11S,17aR,20R)-20-benzyl-N-(2-(3-cyclopropyl-1,2,4-oxadiazol-5-yl)-2,2-difluoroethyl)-11-isobutyl-4-methoxy-10-methyl-5,9,12,18-tetraoxo-5,6,7,8,9,10,11,12,15,16,17,17a,18,19,20,21-hexadecahydro-14H-dipyrido[2,1-f:3′,4′-p][1]oxa[4,7,10,14]tetraazacycloheptadecine-7-carboxamide] | 491 | 231 |
| COc1nccc2c1C(=O)N[C@H](C(=O)NCCn1nc3ccccc3n1)CC(=O)N(C)[C@@H](CC(C)C)C(=O)N1CCCC[C@@H]1C(=O)N[C@H](Cc1ccccc1)CO2 [Example 832, (7S,11S,17aR,20R)-N-(2-(2H-benzo[d][1,2,3]triazol-2-yl)ethyl)-20-benzyl-11-isobutyl-4-methoxy-10-methyl-5,9,12,18-tetraoxo-5,6,7,8,9,10,11,12,15,16,17,17a,18,19,20,21-hexadecahydro-14H-dipyrido[2,1-f:3′,4′-p][1]oxa[4,7,10,14]tetraazacycloheptadecine-7-carboxamide] | 518 | 367 |
| COc1nccc2c1C(=O)N[C@H](C(=O)NCCn1nnc(C3CC3)n1)CC(=O)N(C)[C@@H](CC(C)C)C(=O)N1CCCC[C@@H]1C(=O)N[C@H](Cc1ccccc1)CO2 [Example 833, (7S,11S,17aR,20R)-20-benzyl-N-(2-(5-cyclopropyl-2H-tetrazol-2-yl)ethyl)-11-isobutyl-4-methoxy-10-methyl-5,9,12,18-tetraoxo-5,6,7,8,9,10,11,12,15,16,17,17a,18,19,20,21-hexadecahydro-14H-dipyrido[2,1-f:3′,4′-p][1]oxa[4,7,10,14]tetraazacycloheptadecine-7-carboxamide] | 615 | 411 |
| C#Cc1nn(CCNC(=O)[C@@H]2CC(=O)N(C)[C@@H](CC(C)C)C(=O)N3CCCC[C@@H]3C(=O)N[C@H](Cc3ccccc3)COc3cc(C)nc(OC)c3C(=O)N2)nc1C [Example 834, (7S,11S,17aR,20R)-20-benzyl-N-(2-(4-ethynyl-5-methyl-2H-1,2,3-triazol-2-yl)ethyl)-11-isobutyl-4-methoxy-2,10-dimethyl-5,9,12,18-tetraoxo-5,6,7,8,9,10,11,12,15,16,17,17a,18,19,20,21-hexadecahydro-14H-dipyrido[2,1-f:3′,4′-p][1]oxa[4,7,10,14]tetraazacycloheptadecine-7-carboxamide] | 240 | 300 |
| COc1nc(C)cc2c1C(=O)N[C@H](C(=O)NCCn1nnc(C3CC3)n1)CC(=O)N(C)[C@@H](CC(C)C)C(=O)N1CCCC[C@@H]1C(=O)N[C@H](Cc1ccccc1)CO2 [Example 835, (7S,11S,17aR,20R)-20-benzyl-N-(2-(5-cyclopropyl-2H-tetrazol-2-yl)ethyl)-11-isobutyl-4-methoxy-2,10-dimethyl-5,9,12,18-tetraoxo-5,6,7,8,9,10,11,12,15,16,17,17a,18,19,20,21-hexadecahydro-14H-dipyrido[2,1-f:3′,4′-p][1]oxa[4,7,10,14]tetraazacycloheptadecine-7-carboxamide] | 363 | 326 |
| COc1nc(C)cc2c1C(=O)N[C@H](C(=O)NCCn1ncc(C#N)n1)CC(=O)N(C)[C@@H](CC(C)C)C(=O)N1CCCC[C@@H]1C(=O)N[C@H](Cc1ccccc1)CO2 [Example 836, (7S,11S,17aR,20R)-20-benzyl-N-(2-(4-cyano-2H-1,2,3-triazol-2-yl)ethyl)-11-isobutyl-4-methoxy-2,10-dimethyl-5,9,12,18-tetraoxo-5,6,7,8,9,10,11,12,15,16,17,17a,18,19,20,21-hexadecahydro-14H-dipyrido[2,1-f:3′,4′-p][1]oxa[4,7,10,14]tetraazacycloheptadecine-7-carboxamide] | 967 | 257 |
| CC(C)C[C@H]1C(=O)N(C)[C@H](Cc2nc(-c3ccc(F)cn3)no2)C(=O)N[C@H](Cc2ccccc2)COc2cnc3ccc(F)cc3c2C(=O)N[C@H](C(=O)NCCn2ncc(C3CC3)n2)CC(=O)N1C [Example 837, (3S,7S,10R,13R)-13-benzyl-N-(2-(4-cyclopropyl-2H-1,2,3-triazol-2-yl)ethyl)-20-fluoro-10-((3-(5-fluoropyridin-2-yl)-1,2,4-oxadiazol-5-yl)methyl)-7-isobutyl-6,9-dimethyl-1,5,8,11-tetraoxo-1,2,3,4,5,6,7,8,9,10,11,12,13,14-tetradecahydro-[1]oxa[4,7,10,14]tetraazacycloheptadecino[17,16-c]quinoline-3-carboxamide] | 198 | 358 |
